Data from patent US12365696B2, “Small-molecule focal adhesion kinase (FAK) inhibitors” (DANA-FARBER CANCER INSTITUTE, INC., priority 2019, dated 2025).
Read-outs that look alike come from different tables or passages of the source.

What was measured:
Test in all cases: KINOMEscan
Format in all cases: binding
[1] = molecular target: ABL1(T315I)-phosphorylated (Homo sapiens (Human), UniProt P00519, T315I); details: 10000 nM, read-out: Percent Control
[2] = molecular target: ACVR1B (Homo sapiens (Human), UniProt P36896); details: 10000 nM, read-out: Percent Control
[3] = molecular target: AKT2 (Homo sapiens (Human), UniProt P31751); details: AKT2, 10000 nM; read-out: Percent Control
AKT2, sequence (P31751 whole entry): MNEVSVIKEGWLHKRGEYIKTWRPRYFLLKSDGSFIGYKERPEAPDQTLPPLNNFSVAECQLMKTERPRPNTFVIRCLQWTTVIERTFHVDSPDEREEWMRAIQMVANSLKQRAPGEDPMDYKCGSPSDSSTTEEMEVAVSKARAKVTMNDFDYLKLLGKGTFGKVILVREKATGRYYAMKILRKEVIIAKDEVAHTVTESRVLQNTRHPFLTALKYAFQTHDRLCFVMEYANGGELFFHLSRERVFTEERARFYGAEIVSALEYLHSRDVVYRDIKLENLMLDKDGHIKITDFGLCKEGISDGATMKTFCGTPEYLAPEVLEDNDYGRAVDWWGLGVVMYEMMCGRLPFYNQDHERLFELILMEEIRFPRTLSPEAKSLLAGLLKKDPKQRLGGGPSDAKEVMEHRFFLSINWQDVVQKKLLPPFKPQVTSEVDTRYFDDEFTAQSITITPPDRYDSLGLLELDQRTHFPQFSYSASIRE

[4] = molecular target: AURKB (Homo sapiens (Human), UniProt Q96GD4); details: 10000 nM, read-out: Percent Control
AURKB, sequence (Q96GD4 whole entry): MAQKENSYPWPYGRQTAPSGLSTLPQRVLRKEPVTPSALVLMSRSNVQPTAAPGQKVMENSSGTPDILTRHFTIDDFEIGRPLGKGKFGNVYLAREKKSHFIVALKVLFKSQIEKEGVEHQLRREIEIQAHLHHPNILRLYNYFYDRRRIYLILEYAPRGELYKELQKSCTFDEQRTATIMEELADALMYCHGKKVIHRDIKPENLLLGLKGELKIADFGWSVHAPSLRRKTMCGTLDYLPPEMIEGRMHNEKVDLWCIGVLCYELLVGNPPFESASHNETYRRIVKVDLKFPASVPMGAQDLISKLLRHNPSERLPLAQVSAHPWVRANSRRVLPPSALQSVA

[5] = molecular target: BTK (Homo sapiens (Human), UniProt Q06187); details: 10000 nM, read-out: Percent Control
[6] = molecular target: CAMK1G (Homo sapiens (Human), UniProt Q96NX5); details: 10000 nM, read-out: Percent Control
[7] = molecular target: CDKL5 (Homo sapiens (Human), UniProt O76039); details: CDKL5, 10000 nM; read-out: Percent Control
[8] = molecular target: CIT (Homo sapiens (Human), UniProt O14578); details: 10000 nM, read-out: Percent Control
[9] = molecular target: CSK (Homo sapiens (Human), UniProt P41240); details: 10000 nM, read-out: Percent Control
[10] = molecular target: DCAMKL2 (Homo sapiens (Human), UniProt Q8N568); details: DCAMKL2, 10000 nM; read-out: Percent Control
[11] = molecular target: DCAMKL3 (Homo sapiens (Human), UniProt Q9C098); details: DCAMKL3, 10000 nM; read-out: Percent Control
[12] = molecular target: DRAK1 (Homo sapiens (Human), UniProt Q9UEE5); details: DRAK1, 10000 nM; read-out: Percent Control
[13] = molecular target: EPHA1 (Homo sapiens (Human), UniProt P21709); details: EPHA1, 10000 nM; read-out: Percent Control
[14] = molecular target: EPHA5 (Homo sapiens (Human), UniProt P54756); details: EPHA5, 10000 nM; read-out: Percent Control
[15] = molecular target: FER (Homo sapiens (Human), UniProt P16591); details: 10000 nM, read-out: Percent Control
[16] = molecular target: FLT1 (Homo sapiens (Human), UniProt P17948); details: FLT1, 10000 nM; read-out: Percent Control
[17] = molecular target: FLT3(D835Y) (Homo sapiens (Human), UniProt P36888, D835Y); details: 10000 nM, read-out: Percent Control
[18] = molecular target: FRK (Homo sapiens (Human), UniProt P42685); details: 10000 nM, read-out: Percent Control
[19] = molecular target: GSK3A (Homo sapiens (Human), UniProt P49840); details: 10000 nM, read-out: Percent Control
[20] = molecular target: IKK-alpha (Homo sapiens (Human), UniProt O15111); details: 10000 nM, read-out: Percent Control
[21] = molecular target: IKK-epsilon (Homo sapiens (Human), UniProt Q14164); details: 10000 nM, read-out: Percent Control
[22] = molecular target: MARK3 (Homo sapiens (Human), UniProt P27448); details: MARK3, 10000 nM; read-out: Percent Control
[23] = molecular target: MRCKA (Homo sapiens (Human), UniProt Q5VT25); details: 10000 nM, read-out: Percent Control
MRCKA, sequence (Q5VT25 whole entry): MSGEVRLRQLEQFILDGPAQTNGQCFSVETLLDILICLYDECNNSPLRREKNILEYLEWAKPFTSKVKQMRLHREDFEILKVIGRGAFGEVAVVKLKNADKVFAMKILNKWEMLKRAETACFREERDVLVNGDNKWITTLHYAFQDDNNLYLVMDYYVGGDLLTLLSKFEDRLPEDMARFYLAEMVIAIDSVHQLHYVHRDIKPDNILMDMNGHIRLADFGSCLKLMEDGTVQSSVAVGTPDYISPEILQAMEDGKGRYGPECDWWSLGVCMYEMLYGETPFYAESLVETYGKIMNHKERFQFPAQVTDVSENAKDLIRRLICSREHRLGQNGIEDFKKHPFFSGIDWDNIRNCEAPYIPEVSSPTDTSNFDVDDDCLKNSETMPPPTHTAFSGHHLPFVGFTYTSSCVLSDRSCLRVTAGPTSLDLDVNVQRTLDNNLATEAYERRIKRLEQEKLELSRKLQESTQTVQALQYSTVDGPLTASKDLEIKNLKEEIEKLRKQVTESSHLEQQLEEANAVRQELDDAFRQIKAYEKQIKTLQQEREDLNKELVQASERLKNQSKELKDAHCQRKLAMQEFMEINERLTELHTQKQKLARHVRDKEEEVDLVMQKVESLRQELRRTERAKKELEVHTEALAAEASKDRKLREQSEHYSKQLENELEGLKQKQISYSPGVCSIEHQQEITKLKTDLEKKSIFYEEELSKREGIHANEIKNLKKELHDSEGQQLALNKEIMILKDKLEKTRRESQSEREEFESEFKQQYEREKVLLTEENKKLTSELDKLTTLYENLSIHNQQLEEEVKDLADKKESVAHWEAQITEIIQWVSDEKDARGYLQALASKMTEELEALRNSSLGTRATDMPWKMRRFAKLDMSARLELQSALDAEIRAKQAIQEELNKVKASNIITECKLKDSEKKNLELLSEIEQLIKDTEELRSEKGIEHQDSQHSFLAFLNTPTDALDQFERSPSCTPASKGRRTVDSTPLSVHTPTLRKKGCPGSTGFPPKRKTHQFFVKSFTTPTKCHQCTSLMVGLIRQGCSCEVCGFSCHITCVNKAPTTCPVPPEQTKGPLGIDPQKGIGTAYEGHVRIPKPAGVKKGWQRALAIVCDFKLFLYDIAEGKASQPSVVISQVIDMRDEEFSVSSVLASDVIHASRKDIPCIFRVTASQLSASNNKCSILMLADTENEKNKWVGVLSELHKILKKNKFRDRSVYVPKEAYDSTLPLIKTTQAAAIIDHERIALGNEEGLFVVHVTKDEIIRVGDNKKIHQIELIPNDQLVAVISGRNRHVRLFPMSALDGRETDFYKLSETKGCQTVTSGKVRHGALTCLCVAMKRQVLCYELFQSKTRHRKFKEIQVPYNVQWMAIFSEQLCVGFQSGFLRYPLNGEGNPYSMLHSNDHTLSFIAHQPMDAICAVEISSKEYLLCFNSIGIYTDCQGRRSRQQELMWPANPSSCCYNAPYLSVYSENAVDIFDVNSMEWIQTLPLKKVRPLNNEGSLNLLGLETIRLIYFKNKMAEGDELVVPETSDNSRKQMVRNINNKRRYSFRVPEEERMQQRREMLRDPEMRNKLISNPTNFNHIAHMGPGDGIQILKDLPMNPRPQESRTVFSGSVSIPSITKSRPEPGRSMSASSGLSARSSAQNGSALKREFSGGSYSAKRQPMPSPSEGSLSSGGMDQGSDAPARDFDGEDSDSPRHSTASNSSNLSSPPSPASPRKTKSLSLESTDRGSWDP

[24] = molecular target: MYLK4 (Homo sapiens (Human), UniProt Q86YV6); details: MYLK4, 10000 nM; read-out: Percent Control
[25] = molecular target: NDR2 (Homo sapiens (Human), UniProt Q9Y2H1); details: NDR2, 10000 nM; read-out: Percent Control
NDR2, sequence (Q9Y2H1 whole entry): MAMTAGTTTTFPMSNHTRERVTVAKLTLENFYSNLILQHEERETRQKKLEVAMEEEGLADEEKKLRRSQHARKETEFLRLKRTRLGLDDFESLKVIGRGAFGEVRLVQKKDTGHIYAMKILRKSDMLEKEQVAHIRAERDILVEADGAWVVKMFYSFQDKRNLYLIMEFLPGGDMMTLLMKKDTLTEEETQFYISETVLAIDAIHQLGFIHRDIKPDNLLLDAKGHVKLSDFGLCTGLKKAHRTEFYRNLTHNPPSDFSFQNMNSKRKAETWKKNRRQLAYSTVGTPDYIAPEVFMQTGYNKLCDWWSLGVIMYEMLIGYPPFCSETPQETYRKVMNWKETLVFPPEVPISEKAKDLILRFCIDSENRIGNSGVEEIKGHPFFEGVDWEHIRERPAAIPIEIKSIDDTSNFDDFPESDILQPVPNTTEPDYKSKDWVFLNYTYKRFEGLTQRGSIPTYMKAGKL

[26] = molecular target: NEK3 (Homo sapiens (Human), UniProt P51956); details: NEK3, 10000 nM; read-out: Percent Control
[27] = molecular target: RDGFRB (Homo sapiens (Human), UniProt P09619); details: 10000 nM, read-out: Percent Control
RDGFRB, sequence (P09619 33-1106): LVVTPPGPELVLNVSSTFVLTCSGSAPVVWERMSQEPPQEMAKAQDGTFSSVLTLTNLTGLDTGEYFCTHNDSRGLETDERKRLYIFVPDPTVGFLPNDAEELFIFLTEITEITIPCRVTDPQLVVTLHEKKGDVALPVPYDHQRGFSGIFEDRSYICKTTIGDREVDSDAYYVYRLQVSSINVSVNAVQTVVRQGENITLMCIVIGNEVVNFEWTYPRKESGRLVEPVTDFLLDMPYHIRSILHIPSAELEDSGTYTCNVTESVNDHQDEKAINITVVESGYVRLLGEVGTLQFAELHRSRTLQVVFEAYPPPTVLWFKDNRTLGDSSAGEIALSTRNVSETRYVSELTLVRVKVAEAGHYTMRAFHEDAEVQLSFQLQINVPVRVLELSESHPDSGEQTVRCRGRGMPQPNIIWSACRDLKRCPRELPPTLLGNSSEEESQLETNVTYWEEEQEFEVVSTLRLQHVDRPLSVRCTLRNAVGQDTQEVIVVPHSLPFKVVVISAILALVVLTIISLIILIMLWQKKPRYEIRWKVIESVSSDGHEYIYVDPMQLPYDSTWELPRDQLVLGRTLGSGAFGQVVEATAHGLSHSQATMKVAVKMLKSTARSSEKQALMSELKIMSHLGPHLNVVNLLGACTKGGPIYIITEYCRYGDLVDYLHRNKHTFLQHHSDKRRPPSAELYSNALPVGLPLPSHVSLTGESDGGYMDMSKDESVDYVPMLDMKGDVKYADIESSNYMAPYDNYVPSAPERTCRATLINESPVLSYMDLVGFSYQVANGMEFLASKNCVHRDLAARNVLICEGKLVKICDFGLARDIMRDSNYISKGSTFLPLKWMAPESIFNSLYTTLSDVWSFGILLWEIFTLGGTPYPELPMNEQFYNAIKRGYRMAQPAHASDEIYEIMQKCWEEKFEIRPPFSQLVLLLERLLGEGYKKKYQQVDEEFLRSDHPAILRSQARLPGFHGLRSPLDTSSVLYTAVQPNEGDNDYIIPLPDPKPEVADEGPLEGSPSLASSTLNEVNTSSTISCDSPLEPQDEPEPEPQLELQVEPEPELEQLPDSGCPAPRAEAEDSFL

[28] = molecular target: PFCDPK1(P. falciparum) (Plasmodium falciparum (isolate 3D7), UniProt P62344); details: 10000 nM, read-out: Percent Control
[29] = molecular target: PIK3C2B (Homo sapiens (Human), UniProt O00750); details: 10000 nM, read-out: Percent Control
[30] = molecular target: PYK2 (Homo sapiens (Human), UniProt Q14289); details: PYK2, 10000 nM; read-out: Percent Control
[31] = molecular target: RPS6KA4(Kin.Dom.2-C-terminal) (Homo sapiens (Human), UniProt O75676); details: 10000 nM, read-out: Percent Control
RPS6KA4(Kin.Dom.2-C-terminal), sequence (O75676 411-674): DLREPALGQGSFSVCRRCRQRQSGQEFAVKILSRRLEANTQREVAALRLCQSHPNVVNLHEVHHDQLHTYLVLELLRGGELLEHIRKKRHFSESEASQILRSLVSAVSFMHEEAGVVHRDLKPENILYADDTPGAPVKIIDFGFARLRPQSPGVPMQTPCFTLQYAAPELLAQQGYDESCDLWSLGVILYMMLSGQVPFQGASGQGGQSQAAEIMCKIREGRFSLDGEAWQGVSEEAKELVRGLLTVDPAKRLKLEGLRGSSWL

[32] = molecular target: TBK1 (Homo sapiens (Human), UniProt Q9UHD2); details: TBK1, 10000 nM; read-out: Percent Control
[33] = molecular target: TRKC (Homo sapiens (Human), UniProt Q16288); details: 10000 nM, read-out: Percent Control
[34] = molecular target: ULK3 (Homo sapiens (Human), UniProt Q6PHR2); details: ULK3, 10000 nM; read-out: Percent Control
[35] = molecular target: WEE2 (Homo sapiens (Human), UniProt P0C1S8); details: WEE2, 10000 nM; read-out: Percent Control
WEE2, sequence (P0C1S8 whole entry): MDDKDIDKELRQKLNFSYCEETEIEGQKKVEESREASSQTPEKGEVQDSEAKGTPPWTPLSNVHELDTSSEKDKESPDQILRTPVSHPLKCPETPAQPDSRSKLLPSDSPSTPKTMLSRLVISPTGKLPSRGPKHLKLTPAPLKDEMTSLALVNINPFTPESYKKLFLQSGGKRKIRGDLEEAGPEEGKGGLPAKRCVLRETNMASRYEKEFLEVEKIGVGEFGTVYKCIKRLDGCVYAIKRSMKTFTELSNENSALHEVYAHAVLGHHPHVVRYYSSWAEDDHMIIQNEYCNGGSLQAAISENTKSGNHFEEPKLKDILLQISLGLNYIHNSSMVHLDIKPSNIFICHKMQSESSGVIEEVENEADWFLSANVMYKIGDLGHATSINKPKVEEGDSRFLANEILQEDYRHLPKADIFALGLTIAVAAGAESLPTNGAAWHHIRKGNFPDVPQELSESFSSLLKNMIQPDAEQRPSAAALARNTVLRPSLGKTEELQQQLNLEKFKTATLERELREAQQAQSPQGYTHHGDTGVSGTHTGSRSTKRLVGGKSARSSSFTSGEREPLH

Question: With `COc1cc(N2CCC(N3CCN(C)CC3)CC2)ccc1Nc1ncc2c(n1)N(C)c1sc(C)nc1C(=O)N2` [Compound 3, 6-((2-methoxy-4-(4-(4-methylpiperazin-1-yl)piperidin-1-yl)phenyl)amino)-2,4-dimethyl-4,9-dihydro-10H-pyrimido[5,4-b]thiazolo[5,4-e][1,4]diazepin-10-one] as the molecule, how does the remaining binding at 10 µM [1] read?
Answer: 93%

Question: What about the remaining binding at 10 µM [2] of the same molecule?
Answer: 80%

Question: What about the remaining binding at 10 µM [3] of the same molecule?
Answer: 75%

Question: And the remaining binding at 10 µM [4]?
Answer: 100%

Question: And the remaining binding at 10 µM [5]?
Answer: 100%

Question: What about the remaining binding at 10 µM [6] of the same molecule?
Answer: 74%

Question: And the remaining binding at 10 µM [7]?
Answer: 97%

Question: What about the remaining binding at 10 µM [8] of the same molecule?
Answer: 73%

Question: And the remaining binding at 10 µM [9]?
Answer: 85%

Question: And the remaining binding at 10 µM [10]?
Answer: 87%

Question: And the remaining binding at 10 µM [11]?
Answer: 81%

Question: What about the remaining binding at 10 µM [12] of the same molecule?
Answer: 95%

Question: What about the remaining binding at 10 µM [13] of the same molecule?
Answer: 54%

Question: And the remaining binding at 10 µM [14]?
Answer: 65%

Question: And the remaining binding at 10 µM [15]?
Answer: 74%

Question: And the remaining binding at 10 µM [16]?
Answer: 87%

Question: And the remaining binding at 10 µM [17]?
Answer: 76%

Question: What about the remaining binding at 10 µM [18] of the same molecule?
Answer: 37%

Question: What about the remaining binding at 10 µM [19] of the same molecule?
Answer: 82%

Question: And the remaining binding at 10 µM [20]?
Answer: 100%

Question: And the remaining binding at 10 µM [21]?
Answer: 78%

Question: What about the remaining binding at 10 µM [22] of the same molecule?
Answer: 96%

Question: And the remaining binding at 10 µM [23]?
Answer: 98%

Question: And the remaining binding at 10 µM [24]?
Answer: 77%

Question: And the remaining binding at 10 µM [25]?
Answer: 86%

Question: What about the remaining binding at 10 µM [26] of the same molecule?
Answer: 88%

Question: What about the remaining binding at 10 µM ([27]; RDGFRB) of the same molecule?
Answer: 50%

Question: And the remaining binding at 10 µM [28]?
Answer: 100%

Question: And the remaining binding at 10 µM [29]?
Answer: 86%

Question: And the remaining binding at 10 µM [30]?
Answer: 41%

Question: And the remaining binding at 10 µM [31]?
Answer: 100%

Question: And the remaining binding at 10 µM [32]?
Answer: 71%

Question: What about the remaining binding at 10 µM [33] of the same molecule?
Answer: 100%

Question: What about the remaining binding at 10 µM [34] of the same molecule?
Answer: 95%

Question: What about the remaining binding at 10 µM [35] of the same molecule?
Answer: 65%

Question: Which remaining binding at 10 µM [1] does the source give for `COc1cc(N2CCC(N3CCN(C)CC3)CC2)ccc1Nc1ncc2c(n1)N(C)c1sc(C)nc1C(=O)N2C` [Compound 5, 6-((2-methoxy-4-(4-(4-methylpiperazin-1-yl)piperidin-1-yl)phenyl)amino)-2,4,9-trimethyl-4,9-dihydro-10H-pyrimido[5,4-b]thiazolo[5,4-e][1,4]diazepin-10-one] here?
Answer: 98%

Question: And the remaining binding at 10 µM [2]?
Answer: 95%

Question: What about the remaining binding at 10 µM [3] of the same molecule?
Answer: 100%

Question: And the remaining binding at 10 µM [4]?
Answer: 99%

Question: And the remaining binding at 10 µM [5]?
Answer: 100%

Question: What about the remaining binding at 10 µM [6] of the same molecule?
Answer: 95%

Question: And the remaining binding at 10 µM [7]?
Answer: 100%

Question: What about the remaining binding at 10 µM [8] of the same molecule?
Answer: 98%

Question: What about the remaining binding at 10 µM [9] of the same molecule?
Answer: 100%

Question: And the remaining binding at 10 µM [10]?
Answer: 3%

Question: And the remaining binding at 10 µM [11]?
Answer: 86%

Question: What about the remaining binding at 10 µM [12] of the same molecule?
Answer: 100%

Question: What about the remaining binding at 10 µM [13] of the same molecule?
Answer: 100%

Question: What about the remaining binding at 10 µM [14] of the same molecule?
Answer: 95%

Question: And the remaining binding at 10 µM [15]?
Answer: 57%

Question: And the remaining binding at 10 µM [16]?
Answer: 100%

Question: And the remaining binding at 10 µM [17]?
Answer: 91%

Question: What about the remaining binding at 10 µM [18] of the same molecule?
Answer: 99%

Question: And the remaining binding at 10 µM [19]?
Answer: 100%

Question: And the remaining binding at 10 µM [20]?
Answer: 100%

Question: What about the remaining binding at 10 µM [21] of the same molecule?
Answer: 100%

Question: And the remaining binding at 10 µM [22]?
Answer: 81%

Question: And the remaining binding at 10 µM [23]?
Answer: 84%

Question: What about the remaining binding at 10 µM [24] of the same molecule?
Answer: 100%

Question: And the remaining binding at 10 µM [25]?
Answer: 64%

Question: What about the remaining binding at 10 µM [26] of the same molecule?
Answer: 100%

Question: What about the remaining binding at 10 µM ([27]; PDGFRB) of the same molecule?
Answer: 100%

Question: What about the remaining binding at 10 µM [28] of the same molecule?
Answer: 99%

Question: And the remaining binding at 10 µM [29]?
Answer: 100%

Question: And the remaining binding at 10 µM [30]?
Answer: 85%

Question: What about the remaining binding at 10 µM [31] of the same molecule?
Answer: 30%

Question: What about the remaining binding at 10 µM [32] of the same molecule?
Answer: 88%

Question: What about the remaining binding at 10 µM [33] of the same molecule?
Answer: 100%

Question: And the remaining binding at 10 µM [34]?
Answer: 97%

Question: What about the remaining binding at 10 µM [35] of the same molecule?
Answer: 100%
